The assay concerns the target T1, Polyunsaturated fatty acid 5-lipoxygenase (Rattus norvegicus, UniProt P12527).
T1 sequence (P12527 whole entry): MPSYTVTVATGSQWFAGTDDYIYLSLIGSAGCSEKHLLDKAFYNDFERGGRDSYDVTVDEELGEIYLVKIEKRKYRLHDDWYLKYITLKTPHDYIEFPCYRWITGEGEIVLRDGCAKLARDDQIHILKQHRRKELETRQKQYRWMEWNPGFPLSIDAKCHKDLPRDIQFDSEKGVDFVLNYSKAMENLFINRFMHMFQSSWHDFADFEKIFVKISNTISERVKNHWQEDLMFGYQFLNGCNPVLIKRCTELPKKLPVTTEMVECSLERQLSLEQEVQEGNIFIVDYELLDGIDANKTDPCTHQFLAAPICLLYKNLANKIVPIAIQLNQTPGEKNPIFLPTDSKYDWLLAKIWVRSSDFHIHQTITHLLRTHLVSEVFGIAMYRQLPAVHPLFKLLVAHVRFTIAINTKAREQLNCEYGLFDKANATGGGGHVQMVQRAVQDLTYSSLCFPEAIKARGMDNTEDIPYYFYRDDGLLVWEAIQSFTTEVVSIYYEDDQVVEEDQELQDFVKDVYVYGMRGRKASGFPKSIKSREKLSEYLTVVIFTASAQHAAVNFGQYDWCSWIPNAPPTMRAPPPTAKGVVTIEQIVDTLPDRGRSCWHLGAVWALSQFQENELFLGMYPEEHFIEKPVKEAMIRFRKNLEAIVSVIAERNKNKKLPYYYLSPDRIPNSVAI
As to the kind of experiment: Inhibition of 5-lipoxygenase in Rattus norvegicus Rat basophil leukemia cells (RBL) cells.
Consider `Oc1c(/C=C/c2ccccc2)ccc2ccccc12`, for which half-maximal inhibition (IC50) was put at 0.16 µM.

`O=C(Oc1ccccc1)c1cc(Cc2ccccc2)c(O)c2ccccc12`: half-maximal inhibition (IC50) required 0.16 µM.

The molecule `CCOc1ccccc1Cc1ccc2ccccc2c1O` registered a half-inhibitory concentration (IC50) of 0.057 µM. Against the preceding molecule, the IC50 is about 2.8-fold lower.

The molecule `CCc1ccc2ccccc2c1O` displayed an IC50 of 0.18 µM. Compared with the last molecule, the IC50 is about 3.2-fold higher.

In general, IC50 refers to the concentration needed to halve the response being measured. The low end stands for inhibition by little substance, the high end for a need for much substance.

These data come from ChEMBL document CHEMBL3044746, “Molecular modeling and pharmacophore approach for structural requirements of some 2-substituted-1-naphthols derivatives as potent 5-lipoxygenase inhibitors” (Med Chem Res, 2013).
